From the supplement of paper PMC11208160

assay: recombinant UMI read abundance after kanamycin selection (control-corrected) (log10(CPM+1)); higher = more efficient recombination; extreme values may be limits of the assay; sequences stand for … in AGTGCAGAGAAAATCGGCCAGTTTTCTCTGCCTGCAGTCCGCATGCCGTGGGACCCCTTGGGTTCTAACCTGTTGCCTAGATTTATGCAGCGGACTGCCTTTCTCCCAAAGTGATAAACCGG…AGGTTGGTTTCACT; site = the 11-nt donor
In short: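 Sequenced counts of recombinant UMIs were turned into CPM, averaged across replicates and scaled with control-derived factors. The reported figure is log10(CPM+1). Those UMIs, each 12 nt long, tagged donor and donor-binding-loop pairs on a plasmid with a promoterless kanamycin gene, screened as a pool in Escherichia coli with IPTG (0.07 mM) plus kanamycin or without selection.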
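Note: IS621 bridge recombinase in Escherichia coli cells against a fixed T5 target plasmid.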

Sequence | recombinant UMI read abundance (log10)
AGTAGATCATGGACCGGTTTTCCCGGTAATCCGTATTTGGA (site AGTAGATCTTC) | 1.45
AGTAGGTCATGGACCGGTTTTCCCGGTAATCCGTATTTGAA (site AGTAGGTCTTT) | 1.07
AGTCACTCATGGACCGGTTTTCCCGGTAATCCGTATTTGCA (site AGTCACTCTTG) | 2.8
AGTCAGCCATGGACCGGTTTTCCCGGTAATCCGTATTTGGA (site AGTCAGCCTTC) | 0.0114
AGTCCACCATGGACCGGTTTTCCCGGTAATCCGTATTTGGG (site AGTCCACCTCC) | 0.00962
AGTCGGTCATGGACCGGTTTTCCCGGTAATCCGTATTTGGC (site AGTCGGTCTGC) | 0
AGTCTGACATGGACCGGTTTTCCCGGTAATCCGTATTTGCT (site AGTCTGACTAG) | 1.87
AGTGCCACATGGACCGGTTTTCCCGGTAATCCGTATTTGAG (site AGTGCCACTCT) | 0.4
AGTGCCCCATGGACCGGTTTTCCCGGTAATCCGTATTTGCT (site AGTGCCCCTAG) | 0.594
AGTGCTCCATGGACCGGTTTTCCCGGTAATCCGTATTTGAA (site AGTGCTCCTTT) | 0.416
AGTTACACATGGACCGGTTTTCCCGGTAATCCGTATTTGCC (site AGTTACACTGG) | 2.42
AGTTATGCATGGACCGGTTTTCCCGGTAATCCGTATTTGGA (site AATTATGCTTC) | 0.159
AGTTATGCATGGACCGGTTTTCCCGGTAATCCGTATTTGGA (site ACTTATGCTTC) | 0.849
AGTTATGCATGGACCGGTTTTCCCGGTAATCCGTATTTGGA (site AGTTATGCTTC) | 0.923
AGTTATGCATGGACCGGTTTTCCCGGTAATCCGTATTTGGA (site ATTTATGCTTC) | 0.709
AGTTGTACATGGACCGGTTTTCCCGGTAATCCGTATTTGGT (site AGTTGTACTAC) | 0.56
AGTTGTCCATGGACCGGTTTTCCCGGTAATCCGTATTTGGG (site AGTTGTCCTCC) | 0.0152
AGTTGTGCATGGACCGGTTTTCCCGGTAATCCGTATTTGAA (site AGTTGTGCTTT) | 0.535
AGTTGTTCATGGACCGGTTTTCCCGGTAATCCGTATTTGGC (site AGTTGTTCTGC) | 1.34
AGTTTGGCATGGACCGGTTTTCCCGGTAATCCGTATTTGCT (site AGTTTGGCTAG) | 0.0222
AGTTTGGCATGGACCGGTTTTCCCGGTAATCCGTATTTGCT (site CGTTTGGCTAG) | 0
AGTTTGGCATGGACCGGTTTTCCCGGTAATCCGTATTTGCT (site GGTTTGGCTAG) | 0
AGTTTGGCATGGACCGGTTTTCCCGGTAATCCGTATTTGCT (site TGTTTGGCTAG) | 0.0837

Sequence | recombinant UMI read abundance (log10)
ATAAAGGCATGGACCGGTTTTCCCGGTAATCCGTATTTGGG (site ATAAAGGCTCC) | 1.03
ATAACTCCATGGACCGGTTTTCCCGGTAATCCGTATTTGCC (site ATAACTCCTGG) | 1.64
ATAAGCACATGGACCGGTTTTCCCGGTAATCCGTATTTGAT (site ATAAGCACTAT) | 2.23
ATAAGCCCATGGACCGGTTTTCCCGGTAATCCGTATTTGAC (site ATAAGACCTGT) | 0
ATAAGCCCATGGACCGGTTTTCCCGGTAATCCGTATTTGAC (site ATAAGCCCTGT) | 2.3
ATAAGCCCATGGACCGGTTTTCCCGGTAATCCGTATTTGAC (site ATAAGGCCTGT) | 0.528
ATAAGCCCATGGACCGGTTTTCCCGGTAATCCGTATTTGAC (site ATAAGTCCTGT) | 0.889
ATAAGGCCATGGACCGGTTTTCCCGGTAATCCGTATTTGTC (site ATAAGGCCTGA) | 1.94
ATAAGGCCATGGACCGGTTTTCCCGGTAATCCGTATTTGTC (site ATAAGGCCTGC) | 0
ATAAGGCCATGGACCGGTTTTCCCGGTAATCCGTATTTGTC (site ATAAGGCCTGG) | 2.46
ATAAGGCCATGGACCGGTTTTCCCGGTAATCCGTATTTGTC (site ATAAGGCCTGT) | 0
ATAAGGTCATGGACCGGTTTTCCCGGTAATCCGTATTTGCA (site ATAAGGTCTTG) | 2.96
ATACAAGCATGGACCGGTTTTCCCGGTAATCCGTATTTGAG (site ATACAAGCTCT) | 2.31
ATACAAGCATGGACCGGTTTTCCCGGTAATCCGTATTTGAG (site ATCCAAGCTCT) | 0.803
ATACAAGCATGGACCGGTTTTCCCGGTAATCCGTATTTGAG (site ATGCAAGCTCT) | 0.923
ATACAAGCATGGACCGGTTTTCCCGGTAATCCGTATTTGAG (site ATTCAAGCTCT) | 0.673
ATACATGCATGGACCGGTTTTCCCGGTAATCCGTATTTGCT (site ATACATGCTAG) | 2.75
ATACGGCCATGGACCGGTTTTCCCGGTAATCCGTATTTGAC (site ATAAGGCCTGT) | 0
ATACGGCCATGGACCGGTTTTCCCGGTAATCCGTATTTGAC (site ATACGGCCTGT) | 0
ATACGGCCATGGACCGGTTTTCCCGGTAATCCGTATTTGAC (site ATAGGGCCTGT) | 0
ATACGGCCATGGACCGGTTTTCCCGGTAATCCGTATTTGAC (site ATATGGCCTGT) | 0
ATACTAACATGGACCGGTTTTCCCGGTAATCCGTATTTGGA (site ATACTAACTTC) | 1.2
ATACTAACATGGACCGGTTTTCCCGGTAATCCGTATTTGGA (site CTACTAACTTC) | 0.853

Sequence | recombinant UMI read abundance (log10)
ATACTAACATGGACCGGTTTTCCCGGTAATCCGTATTTGGA (site GTACTAACTTC) | 0.275
ATACTAACATGGACCGGTTTTCCCGGTAATCCGTATTTGGA (site TTACTAACTTC) | 2.05
ATACTGGCATGGACCGGTTTTCCCGGTAATCCGTATTTGTT (site ATACTGGCTAA) | 0.589
ATAGACTCATGGACCGGTTTTCCCGGTAATCCGTATTTGGT (site ATAGACTCTAC) | 2.79
ATAGCATCATGGACCGGTTTTCCCGGTAATCCGTATTTGAC (site ATAGCATCTGT) | 3.53
ATAGCATCATGGACCGGTTTTCCCGGTAATCCGTATTTGAC (site CTAGTATCTGT) | 1.8
ATAGGAGCATGGACCGGTTTTCCCGGTAATCCGTATTTGGC (site ATAGGAGCTGC) | 2.91
ATAGTATCATGGACCGGTTTTCCCGGTAATCCGTATTTGCG (site ACAGTATCTTG) | 1.46
ATAGTATCATGGACCGGTTTTCCCGGTAATCCGTATTTGCG (site ATAGTATCTCG) | 3.07
ATAGTTTCATGGACCGGTTTTCCCGGTAATCCGTATTTGAC (site ATAGTTTCTGT) | 2.62
ATAGTTTCATGGACCGGTTTTCCCGGTAATCCGTATTTGAC (site CTAGTATCTGT) | 2.45
ATATCGGCATGGACCGGTTTTCCCGGTAATCCGTATTTGGT (site ATATCGGCTAC) | 0.889
ATATGACCATGGACCGGTTTTCCCGGTAATCCGTATTTGAC (site ATATGACCTGT) | 0
ATATGATCATGGACCGGTTTTCCCGGTAATCCGTATTTGGG (site ATATGATCTCC) | 1.26
ATATGGCCATGGACCGGTTTTCCCGGTAATCCGTATTTGAC (site ATAAGGCCTGT) | 0
ATATGGCCATGGACCGGTTTTCCCGGTAATCCGTATTTGAC (site ATACGGCCTGT) | 0
ATATGGCCATGGACCGGTTTTCCCGGTAATCCGTATTTGAC (site ATAGGGCCTGT) | 0
ATATGGCCATGGACCGGTTTTCCCGGTAATCCGTATTTGAC (site ATATGGCCTGT) | 0
ATATTCGCATGGACCGGTTTTCCCGGTAATCCGTATTTGCT (site ATATTCGCTAG) | 2.58
ATCAAAGCATGGACCGGTTTTCCCGGTAATCCGTATTTGAG (site ATCAAAGCTCT) | 2.17
ATCAAAGCATGGACCGGTTTTCCCGGTAATCCGTATTTGAG (site ATCCAAGCTCT) | 0.889
ATCAAAGCATGGACCGGTTTTCCCGGTAATCCGTATTTGAG (site ATCGAAGCTCT) | 0.781
